Measurements reported in patent US10544103B2, “5-HT2 antagonists” (ANAMAR AB, priority 2015, dated 2020).

How the values were obtained:
[1] = biological target: T1, 5-HT2B receptor (Homo sapiens, UniProt P41595); test: 5-HT2B receptor binding, 3H-LSD ligand displacement assay; conditions: for inhibition at 0.001 µM: 0.001 uM compound; for inhibition at 0.01 µM: 0.01 uM compound; for inhibition at 0.1 µM: 0.1 uM compound
T1 construct: host or cells: CHO-K1
Method: 5-HT2B receptor binding (performed at Eurofins Panlabs Taiwan, Ltd.) to human receptor protein expressed in CHO-K1 cells was determined in a ligand displacement assay using ^3H-lysergic acid diethylamide (LSD) as radioligand and ketanserine as a standard reference compound. Data is presented as % displacement of radioligand at indicated compound concentrations, see Table 1 and Table 2.

[2] = biological target: T1, 5-HT2B receptor; test: 5-HT2B receptor antagonism, inhibition of 5-HT stimulated IP-1 accumulation (HTRF) in CHO-K1 cells; assay type: cell-based; conditions: % inhibition of 5-HT (5 nM) induced effect
Method: (§1) 5-HT2B receptor antagonism (performed at Eurofins Panlabs Taiwan, Ltd.) was determined in CHO-K1 cells expressing human receptor protein as inhibition of 5-HT (5 nM) stimulated IP-1 accumulation measured by HTRF quantitation. SB 206553 was used as a standard reference compound. The antagonistic response is expressed as % inhibition of the 5-HT induced effect.

[3] = biological target: T1, 5-HT2B receptor; test: 5-HT2B receptor agonism, IP-1 accumulation in CHO-K1 cells without prior 5-HT stimulation; assay type: cell-based; conditions: % of IP-1 accumulation induced by 5-HT (1 uM)
Method: as §1
5-HT2B receptor agonism (performed at Eurofins Panlabs Taiwan, Ltd.) was determined in the same model as described above in Ex. 117. without prior stimulation with 5-HT. The agonistic response is expressed as % of the IP-1 accumulation induced by 5-HT (1 uM) stimulation.

T1 sequence (P41595 whole entry): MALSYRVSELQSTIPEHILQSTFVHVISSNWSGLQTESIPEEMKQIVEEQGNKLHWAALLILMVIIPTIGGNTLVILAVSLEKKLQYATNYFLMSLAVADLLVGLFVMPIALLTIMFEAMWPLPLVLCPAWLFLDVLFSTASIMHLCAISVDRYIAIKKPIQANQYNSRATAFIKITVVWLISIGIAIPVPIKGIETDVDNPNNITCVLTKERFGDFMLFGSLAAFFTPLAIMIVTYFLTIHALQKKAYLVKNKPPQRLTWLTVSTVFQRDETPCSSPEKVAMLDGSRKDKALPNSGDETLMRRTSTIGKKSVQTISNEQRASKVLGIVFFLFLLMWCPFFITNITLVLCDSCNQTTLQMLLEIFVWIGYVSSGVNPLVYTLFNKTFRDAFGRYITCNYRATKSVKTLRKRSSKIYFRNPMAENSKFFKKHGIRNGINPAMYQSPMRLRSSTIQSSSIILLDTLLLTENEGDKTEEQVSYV

Compound | inhibition at 0.001 µM [1] [%] | inhibition at 0.01 µM [1] [%] | inhibition at 0.1 µM [1] [%] | inhibition at 0.01 µM [2] [%] | inhibition at 0.1 µM [2] [%] | inhibition at 1 µM [2] [%] | activation at 0.01 µM [3] [%] | activation at 0.1 µM [3] [%] | further results
C[C@@H]1CN(C(=N)N)N=C1c1ccccc1O (single isomer, unassigned) [Example 38] | 19 | 76 | 98 | 75 | 100 | 102 | -2 | 0 | inhibition at 1 µM ([1]; 1 uM compound): 102%; inhibition at 10 µM ([1]; 10 uM compound): 104%; inhibition at 0.0001 µM [2]: 23%; inhibition at 0.001 µM [2]: 27%; activation at 0.0001 µM [3]: -2%; activation at 0.001 µM [3]: -1%; activation at 1 µM [3]: -2%
C[C@@H]1CN(C(=N)N)N=C1c1cccc(Cl)c1O (single isomer, unassigned) [Example 73, (R)*-3-(3-chloro-2-hydroxyphenyl)-4-methyl-4,5-dihydro-1H-pyrazole-1-carboximidamide] | 49 | 83 | 99 | 97 | 97 | 98 | 3 | 3 | inhibition at 0.0001 µM [2]: 29%; inhibition at 0.001 µM [2]: 87%; activation at 0.0001 µM [3]: 3%; activation at 0.001 µM [3]: 4%
C[C@@H]1CN(C(=N)NCc2ccccc2)N=C1c1cccc(Cl)c1O (single isomer, unassigned) [Example 76, (R)*—N-Benzyl-3-(3-chloro-2-hydroxyphenyl)-4-methyl-4,5-dihydro-1H-pyrazole-1-carboximidamide] | 91 | 101 | 103 | 99 | 99 | 95 | 3 | -1 | inhibition at 0.0001 µM [2]: 79%; inhibition at 0.001 µM [2]: 95%; activation at 0.0001 µM [3]: 0%; activation at 0.001 µM [3]: 1%
COc1ccccc1C1=NN(C(=N)N)CC1 [Example 1, 3-(2-Methoxyphenyl)-4,5-dihydro-1H-pyrazole-1-carboximidamide] |  |  |  | 2 | 0 | 72 | -1 | -8 | inhibition at 10 µM [2]: 107%; activation at 1 µM [3]: -5%; activation at 10 µM [3]: -1%
N=C(N)N1CCC(c2cccc3ccccc23)=N1 [Example 9, 3-(Naphthalen-1-yl)-4,5-dihydro-1H-pyrazole-1-carboximidamide] |  |  | 81 | 20 | 76 | 103 | -8 | -8 | inhibition at 1 µM ([1]; 1 uM compound): 99%; inhibition at 0.001 µM [2]: 6%; inhibition at 10 µM [2]: 116%; activation at 0.001 µM [3]: -3%; activation at 1 µM [3]: -13%; activation at 10 µM [3]: -5%
N=C(NCc1ccccc1)N1CCC(c2ccccc2Cl)=N1 [Example 21, N-Benzyl-3-(2-chlorophenyl)-4,5-dihydro-1H-pyrazole-1-carboximidamide] |  |  | 59 | 10 | 41 | 104 | -5 | -9 | inhibition at 1 µM ([1]; 1 uM compound): 96%; inhibition at 0.001 µM [2]: -6%; inhibition at 10 µM [2]: 113%; activation at 0.001 µM [3]: 3%; activation at 1 µM [3]: -6%; activation at 10 µM [3]: -13%
N=C(NCc1ccccc1)N1CCC(c2ccccc2O)=N1 [Example 22, N-Benzyl-3-(2-hydroxyphenyl)-4,5-dihydro-1H-pyrazole-1-carboximidamide] |  |  | 89 | 28 | 88 | 108 | -10 | -1 | inhibition at 1 µM ([1]; 1 uM compound): 102%; inhibition at 0.001 µM [2]: 14%; inhibition at 10 µM [2]: 110%; activation at 0.001 µM [3]: -5%; activation at 1 µM [3]: -3%; activation at 10 µM [3]: -2%
COc1ccc(NC(=N)N2CC(C)C(c3ccccc3OCc3ccccc3)=N2)cc1 (stereo not shown) [Example 104, 3-(2-(Benzyloxy)phenyl)-N-(4-methoxyphenyl)-4-methyl-4,5-dihydro-1H-pyrazole-1-carboximidamide] | -9 | 33 | 77 |  |  |  |  |  | 
COc1c(Cl)cccc1C1=NN(C(=N)NCC(F)(F)C(F)(F)C(F)(F)F)CC1C (stereo not shown) [Example 106, 3-(3-Chloro-2-methoxyphenyl)-N-(2,2,3,3,4,4,4-heptafluorobutyl)-4-methyl-4,5-dihydro-1H-pyrazole-1-carboximidamide] | 16 | 57 | 93 |  |  |  |  |  | 
CC1CN(C(=N)NCC(F)(F)C(F)(F)C(F)(F)F)N=C1c1cccc(Cl)c1O (stereo not shown) [Example 107, 3-(3-Chloro-2-hydroxyphenyl)-N-(2,2,3,3,4,4,4-heptafluorobutyl)-4-methyl-4,5-dihydro-1H-pyrazole-1-carboximidamide] | 51 | 91 | 100 |  |  |  |  |  | 
COc1c(Cl)cccc1C1=NN(C(=N)Nc2ccc(Cl)cc2)CC1C (stereo not shown) [Example 110, 3-(3-Chloro-2-methoxyphenyl)-N-(4-chlorophenyl)-4-methyl-4,5-dihydro-1H-pyrazole-1-carboximidamide] | 41 | 83 | 97 |  |  |  |  |  | 
COc1c(Cl)cccc1C1=NN(C(=N)Nc2ccc(C(F)(F)F)cc2)CC1C (stereo not shown) [Example 112, 3-(3-Chloro-2-methoxyphenyl)-4-methyl-N-(4-(trifluoromethyl)phenyl)-4,5-dihydro-1H-pyrazole-1-carboximidamide] | 1 | 77 | 97 |  |  |  |  |  | 
CCOC(=O)NC(=N)N1CC(C)C(c2cccc(Cl)c2OC(=O)OCC)=N1 (stereo not shown) [Example 118, Ethyl ((3-(3-chloro-2-((ethoxycarbonyl)oxy)phenyl)-4-methyl-4,5-dihydro-1H-pyrazol-1-yl)(imino)methyl)carbamate] |  | 0 | 54 |  |  |  |  |  | inhibition at 1 µM ([1]; 1 uM compound): 91%
CCOC(=O)NC(=N)N1CC(C)C(c2cccc(Cl)c2O)=N1 (stereo not shown) [Example 119, Ethyl ((3-(3-chloro-2-hydroxyphenyl)-4-methyl-4,5-dihydro-1H-pyrazol-1-yl)(imino)methyl)carbamate] |  | 50 | 89 |  |  |  |  |  | inhibition at 1 µM ([1]; 1 uM compound): 99%
(R)-3-(2-Hydroxyphenyl)-4-methyl-4,5-dihydro-1H-pyrazole-1-carboximidamide [Example 36] |  |  |  |  |  |  |  |  | 5-HT2B receptor binding (% displacement) ([1]; 1 uM compound): 90%; 5-HT2B receptor binding (% displacement) ([1]; 10 uM compound): 99%

The next lines start with results.

inhibition at 0.001 µM [1] [%] | inhibition at 0.01 µM [1] [%] | inhibition at 0.1 µM [1] [%] | Compound | inhibition at 0.01 µM [2] [%] | inhibition at 0.1 µM [2] [%] | inhibition at 1 µM [2] [%] | activation at 0.01 µM [3] [%] | activation at 0.1 µM [3] [%] | further results
42 | 90 | 99 | CC1CN(C(=N)Nc2ccc(Cl)cc2)N=C1c1ccccc1O (stereo not shown) [Example 103, N-(4-Chlorophenyl)-3-(2-hydroxyphenyl)-4-methyl-4,5-dihydro-1H-pyrazole-1-carboximidamide] |  |  |  |  |  | 
46 | 95 | 106 | COc1ccc(NC(=N)N2CC(C)C(c3ccccc3O)=N2)cc1 (stereo not shown) [Example 105, 3-(2-Hydroxyphenyl)-N-(4-methoxyphenyl)-4-methyl-4,5-dihydro-1H-pyrazole-1-carboximidamide] |  |  |  |  |  | 
29 | 83 | 101 | COc1c(Cl)cccc1C1=NN(C(=N)Nc2ccc(F)cc2)CC1C (stereo not shown) [Example 108, 3-(3-Chloro-2-methoxyphenyl)-N-(4-fluorophenyl)-4-methyl-4,5-dihydro-1H-pyrazole-1-carboximidamide] |  |  |  |  |  | 
72 | 99 | 104 | CC1CN(C(=N)Nc2ccc(F)cc2)N=C1c1cccc(Cl)c1O (stereo not shown) [Example 109, 3-(3-Chloro-2-hydroxyphenyl)-N-(4-fluorophenyl)-4-methyl-4,5-dihydro-1H-pyrazole-1-carboximidamide] |  |  |  |  |  | 
80 | 99 | 101 | CC1CN(C(=N)Nc2ccc(Cl)cc2)N=C1c1cccc(Cl)c1O (stereo not shown) [Example 111, 3-(3-Chloro-2-hydroxyphenyl)-N-(4-chlorophenyl)-4-methyl-4,5-dihydro-1H-pyrazole-1-carboximidamide] |  |  |  |  |  | 
59 | 95 | 99 | CC1CN(C(=N)Nc2ccc(C(F)(F)F)cc2)N=C1c1cccc(Cl)c1O (stereo not shown) [Example 113, 3-(3-Chloro-2-hydroxyphenyl)-4-methyl-N-(4-(trifluoromethyl)phenyl)-4,5-dihydro-1H-pyrazole-1-carboximidamide] |  |  |  |  |  | 
